From BindingDB's records for doi:10.7270/Q2D798VP (Broad Institute, 2009)

Target: T1, Zinc finger protein mex-5 (Caenorhabditis elegans, UniProt Q9XUB2)
T1 sequence (Q9XUB2 whole entry): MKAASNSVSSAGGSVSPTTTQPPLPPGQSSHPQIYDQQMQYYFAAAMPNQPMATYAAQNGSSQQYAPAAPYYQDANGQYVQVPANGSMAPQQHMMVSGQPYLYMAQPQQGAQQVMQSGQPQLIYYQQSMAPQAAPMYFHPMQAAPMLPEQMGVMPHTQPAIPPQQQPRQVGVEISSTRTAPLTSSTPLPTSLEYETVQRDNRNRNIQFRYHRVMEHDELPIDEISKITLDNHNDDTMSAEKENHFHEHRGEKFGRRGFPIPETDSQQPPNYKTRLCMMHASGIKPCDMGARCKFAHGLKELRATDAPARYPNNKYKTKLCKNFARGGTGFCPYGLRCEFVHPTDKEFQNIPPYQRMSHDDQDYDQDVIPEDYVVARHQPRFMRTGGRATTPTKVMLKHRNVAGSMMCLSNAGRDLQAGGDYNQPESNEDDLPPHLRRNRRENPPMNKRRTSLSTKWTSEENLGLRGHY
Experiment: MEX-5/TCR-2 RNA interaction inhibitors, dose response, biochemical, C. elegans, fluorescence polarization (AID 1960)

| Compound | EC50 [µM] |
| --- | --- |
| N#CC1C(=N)OC2=C(C(=O)CC(c3ccco3)C2)C1c1ccc(OCc2c(F)cccc2Cl)cc1 (stereo unspecified) [2-azanyl-4-[4-[(2-chloranyl-6-fluoranyl-phenyl)methoxy]phenyl]-7-(furan-2-yl)-5-oxidanylidene-4,6,7,8-tetrahydrochromene-3-carbonitrile] | > 300 |
| O=C(O)c1cc(-c2ccc(C=C3NC(=O)N(c4ccc(Cl)cc4)C3=O)o2)ccc1Cl [2-chloranyl-5-[5-[(Z)-[1-(4-chlorophenyl)-2,5-bis(oxidanylidene)imidazolidin-4-ylidene]methyl]furan-2-yl]benzoic acid] | 38.6 |
| CC(N=Nc1ccc(Cl)c(C(=O)O)c1)c1ccc[nH]1 (stereo unspecified) [2-chloro-5-[2-[(1Z)-1-pyrrol-2-ylideneethyl]hydrazinyl]benzoic acid] | 150 |
| O=C(O)c1cc(-c2ccc(CN=Nc3ccc([N+](=O)[O-])cn3)o2)ccc1Cl [2-chloro-5-[5-[[(5-nitropyridin-2-yl)hydrazinylidene]methyl]furan-2-yl]benzoic acid] | 6.29 |
| CC1(C)CC(=O)C2=C(C1)OC(=N)C(C#N)C2c1cccc(OC(=O)c2ccco2)c1 (stereo unspecified) [2-furancarboxylic acid [3-(2-amino-3-cyano-7,7-dimethyl-5-oxo-6,8-dihydro-4H-1-benzopyran-4-yl)phenyl] ester] | > 300 |
| O=C1NC(=O)N(CCc2ccccc2)C(=O)C1=CNNC(=O)c1ccccc1O [2-hydroxy-N'-[(E)-[2,4,6-trioxo-1-(2-phenylethyl)-1,3-diazinan-5-ylidene]methyl]benzohydrazide] | 201 |
| COc1[nH]c(N=Cc2ccccc2)c(C#N)c1C#N [2-methoxy-5-[(phenylmethylene)amino]-1H-pyrrole-3,4-dicarbonitrile] | 5.63 |
| O=C1c2cccc3cccc(c23)C(=O)C1[N+](=O)[O-] [2-nitro-3-oxidanyl-phenalen-1-one] | 9.23 |
| C=CCOc1cccc(C2C(C(=O)c3cc4ccccc4o3)C(=O)C(=O)N2c2cc(C)on2)c1 (stereo unspecified) [3-(1-benzofuran-2-carbonyl)-4-hydroxy-1-(5-methyl-1,2-oxazol-3-yl)-2-(3-prop-2-enoxyphenyl)-2H-pyrrol-5-one] | 80.5 |
| Cc1cc(N2C(=O)C(=O)C(C(=O)c3cc4ccccc4o3)C2c2ccc([N+](=O)[O-])cc2)no1 (stereo unspecified) [3-(1-benzofuran-2-carbonyl)-4-hydroxy-1-(5-methyl-1,2-oxazol-3-yl)-2-(4-nitrophenyl)-2H-pyrrol-5-one] | 45.4 |
| C=CCOc1cccc(C2C(C(=O)c3ccc(C)o3)C(=O)C(=O)N2c2nnc(C)s2)c1 (stereo unspecified) [3-(5-methylfuran-2-yl)carbonyl-1-(5-methyl-1,3,4-thiadiazol-2-yl)-4-oxidanyl-2-(3-prop-2-enoxyphenyl)-2H-pyrrol-5-one] | 210 |
| C=CCOc1cccc(C2C(C(=O)c3ccc(C)o3)C(=O)C(=O)N2c2nccs2)c1 (stereo unspecified) [3-(5-methylfuran-2-yl)carbonyl-4-oxidanyl-2-(3-prop-2-enoxyphenyl)-1-(1,3-thiazol-2-yl)-2H-pyrrol-5-one] | 0.851 |
| CCCOc1cccc(C2C(C(=O)c3ccco3)C(=O)C(=O)N2c2nnc(C)s2)c1 (stereo unspecified) [3-(furan-2-carbonyl)-4-hydroxy-1-(5-methyl-1,3,4-thiadiazol-2-yl)-2-(3-propoxyphenyl)-2H-pyrrol-5-one] | 82.7 |
| C=CCOc1ccc(C2C(C(=O)c3ccco3)C(=O)C(=O)N2c2nnc(C)s2)cc1 (stereo unspecified) [3-(furan-2-carbonyl)-4-hydroxy-1-(5-methyl-1,3,4-thiadiazol-2-yl)-2-(4-prop-2-enoxyphenyl)-2H-pyrrol-5-one] | > 300 |
| Cc1nnc(N2C(=O)C(=O)C(C(=O)c3ccco3)C2c2cccc3ccccc23)s1 (stereo unspecified) [3-(furan-2-carbonyl)-4-hydroxy-1-(5-methyl-1,3,4-thiadiazol-2-yl)-2-naphthalen-1-yl-2H-pyrrol-5-one] | > 300 |
| CSc1nnc(N2C(=O)C(=O)C(C(=O)c3ccco3)C2c2ccccc2)s1 (stereo unspecified) [3-(furan-2-carbonyl)-4-hydroxy-1-(5-methylsulfanyl-1,3,4-thiadiazol-2-yl)-2-phenyl-2H-pyrrol-5-one] | 76.6 |
| O=C1C(=O)N(c2ncccn2)C(c2cccs2)C1C(=O)c1ccco1 (stereo unspecified) [3-(furan-2-carbonyl)-4-hydroxy-1-pyrimidin-2-yl-2-thiophen-2-yl-2H-pyrrol-5-one] | 31.5 |
| COc1ccc(C2C(C(=O)c3ccco3)C(=O)C(=O)N2c2nnc(C)s2)cc1 (stereo unspecified) [3-(furan-2-carbonyl)-4-hydroxy-2-(4-methoxyphenyl)-1-(5-methyl-1,3,4-thiadiazol-2-yl)-2H-pyrrol-5-one] | 216 |
| Cc1ccc(C2C(C(=O)c3ccco3)C(=O)C(=O)N2c2nnc(C)s2)cc1 (stereo unspecified) [3-(furan-2-carbonyl)-4-hydroxy-2-(4-methylphenyl)-1-(5-methyl-1,3,4-thiadiazol-2-yl)-2H-pyrrol-5-one] | > 300 |
| CSc1ccc(C2C(C(=O)c3ccco3)C(=O)C(=O)N2c2nnc(SC)s2)cc1 (stereo unspecified) [3-(furan-2-carbonyl)-4-hydroxy-2-(4-methylsulfanylphenyl)-1-(5-methylsulfanyl-1,3,4-thiadiazol-2-yl)-2H-pyrrol-5-one] | 16.4 |
| O=C1Nc2ccccc2C1=NNc1ccccc1 [3-(phenylhydrazo)-2-indolone] | 18.3 |

| Compound | EC50 [µM] |
| --- | --- |
| N#CC1C(=N)C2=C(N3CCCCC3)CCCC2C1(C#N)C#N (stereo unspecified) [3-Amino-4-piperidin-1-yl-5,6,7,7a-tetrahydro-indene-1,1,2-tricarbonitrile] | 77.1 |
| COc1ccc(N2C(=O)C(=Nc3ccccc3O)C(Cl)C2=O)cc1 (stereo unspecified) [3-Chloro-4-(2-hydroxy-phenylamino)-1-(4-methoxy-phenyl)-pyrrole-2,5-dione] | 24.5 |
| O=C1C(=Nc2ccccc2O)C(Cl)C(=O)N1c1ccccc1 (stereo unspecified) [3-Chloro-4-(2-hydroxy-phenylamino)-1-phenyl-pyrrole-2,5-dione] | 73 |
| O=c1c2ccccc2nc(N=NCc2ccc(O)cc2)n1O [3-Hydroxy-2-{N'-[1-(4-hydroxy-phenyl)-meth-(E)-ylidene]-hydrazino}-3H-quinazolin-4-one] | > 300 |
| Cc1cc(CN=Nc2ccc([N+](=O)[O-])cn2)c(C)n1-c1cccc(C(=O)O)c1 [3-[2,5-dimethyl-3-[[(5-nitro-2-pyridinyl)hydrazinylidene]methyl]-1-pyrrolyl]benzoic acid] | 37.7 |
| O=NCc1cccn1-c1cccc(C(=O)O)c1 [3-[2-(hydroximinomethyl)pyrrol-1-yl]benzoic acid] | > 300 |
| CCOC(=O)c1c2ccc(OCC(=O)NN=Cc3ccc(Cl)cc3)cc2n2ccccc12 [3-[2-[2-[(4-chlorophenyl)methylidene]hydrazinyl]-2-oxoethoxy]-10-pyrido[1,2-a]indolecarboxylic acid ethyl ester] | 160 |
| Cc1[nH]n(C(N)=S)c(=O)c1N=Nc1cccc(C(=O)O)c1 [3-[(1-carbamothioyl-3-methyl-5-oxo-4H-pyrazol-4-yl)diazenyl]benzoic acid] | 22.7 |
| O=[N+]([O-])c1cc([CH+][N-]n2c(O)csc2=S)ccc1Cl [3-[(4-chloranyl-3-nitro-phenyl)methylideneamino]-2-sulfanylidene-1,3-thiazolidin-4-one] | 15.7 |
| Oc1ccc(C=Nn2c(O)csc2=S)c(O)c1O [3-[[(E)-[2,3-bis(oxidanyl)-4-oxidanylidene-cyclohexa-2,5-dien-1-ylidene]methyl]amino]-2-sulfanylidene-1,3-thiazolidin-4-one] | 0.668 |
| N#CC1C(=N)Oc2ccc3ccc(O)cc3c2C1c1ccsc1 (stereo unspecified) [3-amino-9-hydroxy-1-(3-thienyl)-1H-benzo[f]chromene-2-carbonitrile] | 11 |
| CCCCOc1c(Br)cc(CN=O)cc1OCC [3-bromo-4-butoxy-5-ethoxy-benzaldoxime] | > 300 |
| COc1ccccc1N1C(=O)C(=Nc2ccccc2O)C(Cl)C1=O (stereo unspecified) [3-chloranyl-4-[(2-hydroxyphenyl)amino]-1-(2-methoxyphenyl)pyrrole-2,5-dione] | 8.19 |
| O=C1C=C(NNC(=O)c2sc3ccccc3c2Cl)CCC1 [3-chloranyl-N-[(3-oxidanylidenecyclohexylidene)amino]-1-benzothiophene-2-carboxamide] | 20.5 |
| CC(C)c1nnc(N2C(=O)C(=O)C(C(=O)c3cccs3)C2c2ccccc2)s1 (stereo unspecified) [3-hydroxy-1-(5-isopropyl-1,3,4-thiadiazol-2-yl)-5-phenyl-4-(2-thenoyl)-3-pyrrolin-2-one] | 4.38 |
| Cc1[nH]n(C(N)=S)c(=O)c1N=Nc1ccc(S(N)(=O)=O)cc1 [3-methyl-5-oxidanylidene-4-[(4-sulfamoylphenyl)diazenyl]-4H-pyrazole-1-carbothioamide] | 8.86 |
| O=C1CC(=O)c2c(O)cc(O)c(O)c2C1=O [4,5,7,8-tetrahydroxy-1,2-naphthoquinone] | 0.899 |
| COc1cc(C2C3=C(CCCC3=O)OC(=N)C2C#N)cc(OC)c1OC(=O)N1CCOCC1 (stereo unspecified) [4-(2-amino-3-cyano-5-oxo-5,6,7,8-tetrahydro-4H-chromen-4-yl)-2,6-dimethoxyphenyl morpholine-4-carboxylate] | > 300 |
| COc1cc(C2C3=C(CCCC3=O)OC(=N)C2C#N)ccc1OC(=O)N1CCOCC1 (stereo unspecified) [4-(2-amino-3-cyano-5-oxo-5,6,7,8-tetrahydro-4H-chromen-4-yl)-2-methoxyphenyl morpholine-4-carboxylate] | > 300 |
| N#CC1C(=N)OC2=C(C(=O)CCC2)C1c1ccc(OC(=O)N2CCOCC2)cc1 (stereo unspecified) [4-(2-amino-3-cyano-5-oxo-5,6,7,8-tetrahydro-4H-chromen-4-yl)phenyl morpholine-4-carboxylate] | > 300 |
